Test results taken from patent US9029376B2, “Small molecule inhibitors for the treatment or prevention of dengue virus infection” (Siga Technologies, Inc., priority 2008, dated 2015).
Where two headings read alike, the source gives them in different places.

Legend:
[1] = tested on: Dengue-2 (Strain New Guinea C); assay: Dengue-2 viral yield assay in Vero cells; assay type: cell-based; conditions: Dengue virus, read-out: Activity (anti-dengue 2 viral activity, EC50)
Method: Compounds that were active in the primary screen were tested for activity in viral yield assays. […] Vero cells in 12-well plates were infected with dengue-2 virus at a multiplicity of infection (MOI) of 0.1, treated with compound (or DMSO as a control), incubated at 37° C., harvested 48 hours post infection and titered on Vero cells as described above. The EC50 was calculated through ExcelFit. Those compounds with activity below 1 μM are indicated with “A”, those with activity between 1 and 10 μM are indicated with “B”, and those with activity between 10 and 25 μM with “C”.

[2] = tested on: all four serotypes of dengue; assay: Yield assay against each serotype of dengue virus in vero cells; assay type: cell-based; conditions: FIG. 1
Method: Initially, the chemical structures of the hit compounds were examined for chemical tractability. […] Hits that passed this medicinal chemistry filter were evaluated for their potency. Compound potency was determined by evaluating inhibitory activity across a broad range of concentrations. Nonlinear regression was used to generate best-fit inhibition curves and to calculate the 50% effective concentration (EC50). The selectivity or specificity of a given compound is typically expressed as a ratio of its cytotoxicity to its biological effect. A cell proliferation assay is used to calculate a 50% cytotoxicity concentration (CC50); the ratio of this value to the EC50 is referred to as the therapeutic index (T.I.=CC50/EC50). Two types of assays have been used to determine cytotoxicity, both of which are standard methods for quantitating the reductase activity produced in metabolically active cells (30). One is a colorimetric method that measures the reduction of 3-(4,5-dimethylthiazol-2-yl)-2,5-diphenyl-tetrazolium bromide (MTT), and the other uses fluorimetry to measure the reduction of resazurin (Alamar Blue). […] Verification that these compounds act against each of the four serotypes of dengue was done with yield assays carried out at several drug concentrations, and the titer determined for each. […]

[3] = Cytotoxicity (cell proliferation assay, MTT or Alamar Blue); assay type: cell-based; conditions: flag printed in the Activity column of Table 1
Method: Initially, the chemical structures of the hit compounds were examined for chemical tractability. […] Hits that passed this medicinal chemistry filter were evaluated for their potency. Compound potency was determined by evaluating inhibitory activity across a broad range of concentrations. Nonlinear regression was used to generate best-fit inhibition curves and to calculate the 50% effective concentration (EC50). The selectivity or specificity of a given compound is typically expressed as a ratio of its cytotoxicity to its biological effect. A cell proliferation assay is used to calculate a 50% cytotoxicity concentration (CC50); the ratio of this value to the EC50 is referred to as the therapeutic index (T.I.=CC50/EC50). Two types of assays have been used to determine cytotoxicity, both of which are standard methods for quantitating the reductase activity produced in metabolically active cells (30). One is a colorimetric method that measures the reduction of 3-(4,5-dimethylthiazol-2-yl)-2,5-diphenyl-tetrazolium bromide (MTT), and the other uses fluorimetry to measure the reduction of resazurin (Alamar Blue). […] Verification that these compounds act against each of the four serotypes of dengue was done with yield assays carried out at several drug concentrations, and the titer determined for each.

dengue [4] = conditions: mouse model; cited from earlier work
dengue [5] = conditions: cited from earlier work
[6] = Dengue-2 strain New Guinea C, Vero cells, MOI 0.1, harvested 48 hours post infection, viral yield

Compound: NC(=O)C1(N2CCCCC2)CCN(C(=O)CSc2nc3ccccc3o2)CC1 [Compound 3, 1′-[2-(Benzooxazol-2-ylsulfanyl)-acetyl]-[1,4′]bipiperidinyl-4′-carboxylic acid amide]
- EC50 ([1]; Vero, 48 h): < 1000 nM
- activity against dengue serotypes [2]: activity against all four serotypes of dengue

Compound: O=C1CC(Sc2nc3ccccc3s2)C(=O)N1Cc1ccccc1 (stereo not drawn) [Compound 4, 3-(Benzothiazol-2-ylsulfanyl)-1-benzyl-pyrrolidine-2,5-dione]
- EC50 [1, 6]: < 1000 nM
- toxic (flag beside activity class) [3]: toxic

Compound: COc1ccccc1C(=O)C1CCCN(C(=O)CSc2nc3cc(C)ccc3[nH]2)C1 (stereo not drawn) [Compound 12, 1-[3-(2-Methoxy-benzoyl)-piperidin-1-yl]-2-(5-methyl-1H-benzoimidazol-2-ylsulfanyl)-ethanone]
- EC50 [1, 6]: 1000 to 10000 nM
- toxic (flag beside activity class) [3]: toxic

Compound: NC(=O)c1ncn([C@@H]2O[C@H](CO)[C@@H](O)[C@H]2O)n1 [ribavirin]
- protection against dengue (dengue [4]): did not show protection against dengue
- adverse effects induced (dengue [5]; animal model not specified in the sentence (mouse or rhesus monkey)): induced anemia and thrombocytosis
- protection against dengue (dengue [5]; rhesus monkey model): did not show protection against dengue
